Results as given in patent US20090054376A1, “BENZOFURAN DERIVATIVES WITH THERAPEUTIC ACTIVITIES” (Pharmos Corporation, priority 2005, published 2009).
Where two headings read alike, the source gives them in different places.

How the values were obtained:
IL-1β = test: Gene expression in LPS activated RAW 264.7 macrophages, IL-1β; type: cell-based, mouse; details: RAW 264.7, 10 μM, LPS 1 μg/ml, RNA 3 hrs after activation, vs vehicle treated activated cells
Method: (§1) RAW 264.7 macrophages, a mouse cell line (ATCC # TIB 71), were grown in Dulbecco's modified Eagle's medium (DMEM) with 4 mM L-glutamine adjusted to contain 1.5 g/L sodium bicarbonate, 4.5 g/L glucose, and 10% heat inactivated fetal bovine serum. Cells were grown in tissue culture flasks and seeded at appropriate density into 6 wells tissue culture plates. Four million Raw cells in half a milliliter were stimulated with 1 μg/ml LPS E. coli 055:B5 (DIFCO Laboratories). The mouse macrophages were pre-treated for one hour with controls or 10 μM of test compounds, and later on activated with LPS. RNA samples were extracted from the cells 3 hrs after activation and gene expression levels were analyzed by real-time RT-PCR. In parallel, supernatants were collected and secretion of inflammatory mediators was analyzed using ELISA techniques according to the instructions of the kit manufacturer.
(§2) Total RNA is prepared using SV total RNA isolation system (Promega). The cells were homogenized in lysis buffer. The lysates were transferred to an RNA isolation column, treated with DNAse, washed and eluted according to kit instructions. RNA concentrations were determined using GeneQuant II (Pharmacia-Amersham). Complementary DNA (cDNA) was synthesized from total RNA using […] II reverse transcriptase (Life Technologies). 2 μg of total RNA were combined with an oligo (dT)15 primer, 0.5 mM dNTP mix, 8 units of reverse transcriptase and other reaction components up to a final volume of 20 μl, according to the kit instructions. The reaction mixture was incubated at 42° C. for 45 min and inactivated at 70° C. for 15 minutes. Quantitative real-time RT-PCR included 1 μl of the cDNA, 300 nM of the appropriate forward and reverse primers (according to the gene monitored) and 7.5 μl of the reaction mix containing buffer, nucleotides, Taq polymerase and SYBER green (SYBER Green master mix, Applied Biosystems), in a total reaction volume of 15 μl. Gene amplification was obtained using the GeneAmp 5700 sequence detection system (Applied Biosystems). Amplification included one stage of 10 minutes at 95° C. followed by 40 cycles of a 2-steps loop: 20 seconds at 95° C., and 1 minute at 60° C. During each annealing step, the amount of the amplified product was measured by the fluorescence of the double strand DNA binding dye, SYBER Green. The cycle of threshold (CT), representing the PCR cycle at which an increase in fluorescence above a baseline signal can be first detected, was determined for each product. A delay of one PCR cycle in the CT is translated into a two-fold decrease in starting template molecules and vice versa. The changes in the CT of the specific gene product were normalized to the changes in the CT of housekeeping cyclophilin or GAPDH as reference genes. Results were expressed as fold increase of gene expression in treated or untreated activated cells above the resting cells, after normalization to cyclophilin or GAPDH. Cells were also tested for viability to confirm that any effect on gene expression was indeed due to modulation of transcription of a specific target and not to cytoxicity.
(§3) Results were further expressed as percent inhibition of gene expression in compound treated activated cells over vehicle “treated” activated cells. Since the modulation of IL-10 and TNF-α gene expression by the compounds of the invention is relatively minor, it is not reported. […] Inhibition above 50% was considered significant.

iNOS = test: Gene expression in LPS activated RAW 264.7 macrophages, iNOS; type: cell-based, mouse; details: RAW 264.7, 10 μM, LPS 1 μg/ml, RNA 3 hrs after activation, vs vehicle treated activated cells
Method: as §1, §2, §3

MCP-1 = test: Gene expression in LPS activated RAW 264.7 macrophages, MCP-1; type: cell-based, mouse; details: RAW 264.7, 10 μM, LPS 1 μg/ml, RNA 3 hrs after activation, vs vehicle treated activated cells
Method: as §1, §2, §3

[1] = tested on: visceral pain writhing responses; test: Visceral pain, acetic acid induced writhing responses; type: in vivo, Male ICR mice; details: Mus musculus, iv, single dose 2 mg/kg i.v., compared to untreated group; read-out: Percent Inhibition of Visceral Pain Writhing Responses
Method: Male ICR mice (average body weight 25 g, Harlan, Israel) were pretreated by i.v. injection at volume dose of 5 ml/kg of vehicle, control and test compounds at various doses. Other routes of administration were tested for selected compounds including i.m. or s.c. injections at volume dose of 2.5 ml/kg and p.o. gavage at volume dose of 5 ml/kg. Compounds were dissolved in CREMOPHOR®:Ethanol and diluted 1:20 in saline prior to injection or gavage. Compounds administered i.v. were injected fifteen minutes before pain induction, whereas compounds administered i.m., s.c. or p.o. were supplied thirty minutes before pain induction, unless otherwise indicated. Each treatment group, except for controls comprising at least 30 animals, was composed of at least 6 animals. Fifteen or thirty minutes after drug administration, depending on the route of administration, the mice were injected i.p. with 10 ml/kg of 0.6% acetic acid and the number of visceral pain related behaviors (writhing movements globally defined as WR, i.e. stretching, contractions of the abdomen accompanied by an elongation of the body and extension of the hind limbs) was counted over a period of 5 minutes, starting 5 minutes after the acetic acid administration. These visceral pain related behaviors were globally defined as writhing responses (WR). The results are expressed as mean number of writhing responses ±SEM. Data were analyzed using analysis of variance (ANOVA) followed by post-hoc Fisher test.

[2] = tested on: carrageenan induced inflammatory pain and paw edema; test: Inflammatory pain and paw edema induced by carrageenan; type: in vivo, Male Sprague Dawley rats; details: Rattus norvegicus, ip, 3 hours; for inhibition in vivo at 3 mg/kg: 3 mg/kg i.p. (one asterisk)
Method: Male Sprague Dawley rats (average body weight 200 g, Harlan, Israel) were transiently sedated by placement on dry ice for the duration of the injections. Rats were injected subcutaneously, in the subplantar region of one (right) paw with 0.1 ml of 2% w/v λ Carrageenan in sterile saline. […] Test compounds were, unless otherwise stated, administered i.p. at initial single dose of 3, 10 or 20 mg/kg, and volume dose of 5 ml/kg, immediately after the carrageenan injection. Selected compounds were also tested p.o. following oral gavage. Vehicle and celecoxib treated animals were used as controls. Each treatment group comprised at least seven animals.
Before induction of inflammatory pain and three hours after injection, the animals reactions to pain stimuli were tested in two systems. The first stimulus was thermal and assessed by the Plantar Test according to Hargreaves, using Ugo Basile Model 7370. The scale was set to an intensity of 50 arbitrary units. The latency time till the animal lift a paw as a reaction to the thermal stimulus was recorded for both the inflamed and non-inflamed hind paws. The second stimulus was mechanical (tactile) and assessed using a Dynamic Plantar Sesthesiomether (Ugo Basile Model 73400-002). […] Finally, the impact on paw edema was assessed. Paw thickness was measured using a dial thickness gauge (Spring-dial, constant low pressure gauge, Mitutoyo, TG/L-1, 0.01 mm) and paw volume was measured using a plethysmometer (model #7150, Ugo Basile, Italy). At the end of the study, animals were euthanized.
The results are measured as the differences between the two hind paws at time 0 and 3 hours both as ALT, for the latency time in the thermal part of the study, and as ΔForce, for the mechanical part of the study. The paw volume is expressed as percent from vehicle treated animals. Results are expressed as mean±SEM for each treatment group and the differences among those groups are analyzed by analysis of variance (ANOVA) followed by post-hoc Tukey's test.
Results refer to i.p. treatment with 10 mg/kg. Results marked with one asterisk refer to a dose 3 mg/kg, whereas two asterisks refer to 20 mg/kg. Celecoxib is included as reference.

Human CB1 Receptor = target: T1, Human CB1 Receptor (Homo sapiens, UniProt P21554); test: [35S]GTPγS-binding assay, hCB1; type: biochemical; details: NB = no binding; for Emax: upper plateau of curve
T1 construct: expressed in transfected cells; host or cells: HEK-293 cells (membranes)
T1 sequence (P21554 whole entry): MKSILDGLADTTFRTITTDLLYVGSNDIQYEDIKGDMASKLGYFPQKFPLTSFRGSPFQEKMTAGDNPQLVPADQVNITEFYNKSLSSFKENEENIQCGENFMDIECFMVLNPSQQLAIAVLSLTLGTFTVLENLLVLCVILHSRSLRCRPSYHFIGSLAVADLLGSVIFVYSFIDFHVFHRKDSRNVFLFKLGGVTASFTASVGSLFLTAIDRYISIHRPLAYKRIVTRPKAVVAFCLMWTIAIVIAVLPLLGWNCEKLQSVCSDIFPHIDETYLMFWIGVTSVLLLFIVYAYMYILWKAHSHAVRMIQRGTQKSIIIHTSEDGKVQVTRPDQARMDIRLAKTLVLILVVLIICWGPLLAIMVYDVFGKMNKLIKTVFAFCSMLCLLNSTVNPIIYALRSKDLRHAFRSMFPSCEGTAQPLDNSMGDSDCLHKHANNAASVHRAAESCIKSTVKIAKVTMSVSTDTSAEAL
Method: (§4) Functional activity of compounds of the invention toward the cannabinoid receptors was determined by stimulation of [^35S]-GTPγS binding using membranes from HEK-293 cells expressing the hCB1 receptor and membranes expressing the hCB2 receptor derived from either Sf9 (PerkinElmer) or from HEK-293 cells. Activities were compared to that of the known cannabinoid full agonist CP55940 (Alexis). The purpose of this experiment is to determine the potency of the compounds of the invention as agonists or antagonists toward each of the receptor tested.
(§5) [^35S]-GTPγS binding reactions were performed at 30° C. in 96-well plates containing 5-10 μg membrane protein suspended in 0.1 ml binding buffer [20 mM HEPES-NaOH, pH 7.4, 5 mM MgCl2, 100 mM NaCl, 0.2% (w/v) bovine serum albumin] supplemented with 50 μM GDP and 0.06 nM-10 μM of the compound being tested. Binding was initiated by the addition of [^35S]GTPγS (0.3 nM final concentration). Incubations were performed for 90 minutes and were terminated by filtration on GF/C filter plates (PerkinEimer). Filters were washed ten times with ice-cold wash buffer (20 mM HEPES-NaOH, pH 7.4, 10 mM sodium pyrophosphate). Non-specific binding was measured in the presence of 15 μM GTPγS.
(§6) Assays were performed in duplicates. Data was analyzed by plotting on the X axis the log concentration against percent of specific [^35S]GTPγS binding out of basal [^35S]GTPγS binding on the Y axis, non-linear regression is then performed using GraphPad Prism, version 3.0 (GraphPad, San Diego, Calif.) to calculate the EC50 and Emax of the compound. The EC50 value represents the concentration at which there is 50% [^35S]GTPγS binding and the Emax value the upper plateau of the curve.

Human CB2 Receptor = target: T2, Human CB2 Receptor (Homo sapiens, UniProt P34972); test: [35S]GTPγS-binding assay, hCB2; type: biochemical; details: for EC50 / Emax / agonistic activity toward cannabinoid receptors (in words): GTPγS; for EC50 / Emax: Human CB2 Receptor, NB = no binding; for Emax: upper plateau of curve; for agonistic activity toward cannabinoid receptors (in words): hCB1 and hCB2; for selectivity toward CB2: GTPγS agonism, CB2 versus CB1
T2 construct: host or cells: Sf9 or HEK-293 cells (membranes)
T2 sequence (P34972 whole entry): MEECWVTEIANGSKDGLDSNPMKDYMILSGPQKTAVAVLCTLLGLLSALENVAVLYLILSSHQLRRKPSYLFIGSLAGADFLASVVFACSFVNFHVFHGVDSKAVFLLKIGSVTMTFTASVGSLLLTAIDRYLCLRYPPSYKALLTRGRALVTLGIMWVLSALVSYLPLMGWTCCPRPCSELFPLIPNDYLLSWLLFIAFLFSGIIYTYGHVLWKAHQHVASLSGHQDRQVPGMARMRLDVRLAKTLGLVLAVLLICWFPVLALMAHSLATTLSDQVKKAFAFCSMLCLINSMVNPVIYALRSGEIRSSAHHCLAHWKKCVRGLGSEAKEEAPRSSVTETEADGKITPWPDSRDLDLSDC
Method: as §4, §5, §6

CCCCCCC(C)(C)c1cc(O)c2c(c1)OC1CCCCC21 (centres unmarked) [Compound C6S-1, 3-(1,1-Dimethylheptyl)-5a,6,7,8,9,9a-hexahydro-dibenzofuran-1-ol]
Percent inhibition of gene expression, IL-1β (IL-1β): NO (NO indicates that the compound tested did not significantly affect the transcription of the gene assessed and that its activity is comparable to vehicle, within ±20% from this control) | Percent inhibition of gene expression, iNOS (iNOS): NO (NO indicates that the compound tested did not significantly affect the transcription of the gene assessed and that its activity is comparable to vehicle, within ±20% from this control) | Percent inhibition of gene expression, MCP-1 (MCP-1): 66% | inhibition in vivo at 2 mg/kg [1]: 39% | inhibition in vivo at 20 mg/kg ([2]; 20 mg/kg i.p. (two asterisks), reduction in paw swelling, read-out: Percent Inhibition of Inflammatory Pain Responses, Edema): 48%

CCCCCCC(C)(C)c1cc(O)c2c(c1)OC1CC(C)(C)CCC21 (centres unmarked) [Compound C6S-17, 3-(1,1-dimethylheptyl)-7,7-dimethyl-5a,6,7,8,9,9a-hexahydro-dibenzofuran-1-ol]
EC50 (Human CB1 Receptor): 2880 nM | Emax (Human CB1 Receptor): -25% | EC50 (Human CB2 Receptor): 4 nM | Emax (Human CB2 Receptor): 43% | agonistic activity toward cannabinoid receptors (in words) (Human CB2 Receptor): agonists specific toward the CB2 receptor | inhibition in vivo at 2 mg/kg [1]: 38% | inhibition in vivo at 3 mg/kg ([2]; mechanical stimulus, read-out: Percent Inhibition of Inflammatory Pain Responses, ΔForce): 37% | inhibition in vivo at 3 mg/kg ([2]; reduction in paw swelling, read-out: Percent Inhibition of Inflammatory Pain Responses, Edema): 44% | inhibition in vivo at 3 mg/kg ([2]; thermal stimulus, read-out: Percent Inhibition of Inflammatory Pain Responses, ΔLT): 60%

CCCCCCC(C)(C)c1cc(OC(=O)C=CC(=O)O)c2c(c1)OC1CCCCCC21 (stereo not drawn) [Compound C7S-9, But-2-enedioic acid mono-[2-(1,1-dimethylheptyl)-5,6,7,8,9,9a-hexahydro-4bH-10-oxa-benzo[α]azulen-4-yl]ester]
EC50 (Human CB1 Receptor): > 10000 nM | EC50 (Human CB2 Receptor): 712 nM | Emax (Human CB2 Receptor): 52% | inhibition in vivo at 2 mg/kg [1]: 26%

CCCCCCC(C)(C)c1cc(O)c2c(c1)OC1C(I)CCCCC21 (stereo not drawn) [Compound C7S-26, 2-(1,1-Dimethylheptyl)-9-iodo-5,6,7,8,9,9a-hexahydro-4bH-10-oxa-benzo[α]azulen-4-ol]
EC50 (Human CB1 Receptor): 20 nM | Emax (Human CB1 Receptor): 155% | selectivity toward CB2 (Human CB2 Receptor): about 285 fold | EC50 (Human CB2 Receptor): 0.07 nM | Emax (Human CB2 Receptor): 38% | agonistic activity toward cannabinoid receptors (in words) (Human CB2 Receptor): agonists toward both receptors with some degree of selectivity toward the CB2 receptor | inhibition in vivo at 2 mg/kg [1]: 26%

CCCCCCC(C)(C)c1cc(OC(=O)C=CC(=O)O)c2c(c1)OC1C(I)CCCCC21 (stereo not drawn) [Compound C7S-28, But-2-enedioic acid mono-[2-(1,1-dimethylheptyl)-9-iodo-5,6,7,8,9,9a-hexahydro-4bH-10-oxa-benzo[α]azulen-4-yl]ester]
EC50 (Human CB1 Receptor): 217 nM | Emax (Human CB1 Receptor): 118% | selectivity toward CB2 (Human CB2 Receptor): about 10 fold | EC50 (Human CB2 Receptor): 16 nM | Emax (Human CB2 Receptor): 44% | agonistic activity toward cannabinoid receptors (in words) (Human CB2 Receptor): agonists toward both receptors with some degree of selectivity toward the CB2 receptor | inhibition in vivo at 2 mg/kg [1]: 56%
